Laboratory results published in patent US20030104393A1, “Blood assessment of injury” (priority 2000, published 2003).

Test system: blood cells
Assay: Genes induced in blood 24 hours following kainate induced seizures (Affymetrix microarray)
Format: in vivo, rat
Settings: for Average fold induction / Minimum fold induction: rat blood 24 h after kainate induced seizures vs untouched controls
Procedure: Status epilepticus is produced by intraperitoneally injecting a glutamate analogue/excitotoxin, kainic acid (10 mg/kg i.p.). Animals with kainate-induced seizures are observed following drug administration to ensure that they continue to have complex seizures over a 30 minute period.
All animals are allowed to survive for 24 hours following each treatment. At that time they are deeply anesthetized with ketamine (100 mg/kg) and xylazine (20 mg/kg) given intraperitoneally. Once anesthetized, the chest is opened and a direct cardiac puncture performed with a syringe and 10 cc of blood is aspirated. Immediately following removal of the blood, the animal is decapitated while deeply anesthetized and the brain removed.
One day after hypoxia, status epilepticus, hypoglycemia, ischemic stroke, and hemorrhagic stroke are produced in adult rats, RNA or protein is isolated from the blood cells and from the brains of the animals described in Example 1. The pattern of genes or proteins expressed in the blood cells following each of these types of injury—hypoxia, status epilepticus, hypoglycemia, ischemic stroke, and hemorrhagic stroke is captured on a commercially available microarray (Affymetrix chip). The pattern of gene or protein expression is defined using an expression method, which then forms a genomic or proteomic organ injury database, which is used in assessing injury.
For the tables of genes induced in the blood, the genome expression of blood in the hypoxic animals (3 animals) was compared to the genome expression of blood in untouched control animals (3 animals). The genome expression of blood in the animals with status epilepticus (3 animals) was compared to the genome expression of blood in the untouched control animals (3 animals). The genome expression of blood in the animals with stroke (3 animals) was compared to the genome expression of blood in the sham operated control animals (3 animals). In each case the accession number of the gene and the fold change in gene expression is given—with a maximum estimate and a minimum estimate.
Table 2 sets forth genes induced in the blood of rats 24 hours following kainate induced seizures (n=3 rats) as compared with genes expressed in the blood of untouched control rats (n=3 rats). The accession number of the gene is given, the name of the gene is given where known, the average fold induction is given, as well as the minimum fold induction is given for each gene. A number of the genes are ESTs that have not yet been subjected to a BLAST search. This list was shortened to show only those genes induced at least 2.8 fold. Over 100 genes were induced following kainate on arrays that contained over 8000 genes.

[1] = gene AF027571_s_at phospholipase C-beta 4 isoform (PLC-b4)
[2] = gene AF091563_i_at isolate QIL-LD1 olfactory receptor
[3] = gene AF102552_s_at ankyrin G isoform
[4] = gene D84485_at PMSG-induced ovarian mRNA
[5] = gene L42855_at RNA polymerase II transcription factor SIII p18 subunit
[6] = gene L81136cds_f_at Rps2r1 preliminary DNA
[7] = gene M96159_at adenylyl cyclase type V
[8] = gene S54212_at ciliary neurotrophic factor receptor alpha
[9] = gene U66566_at receptor type protein tyrosine phophatase psi
[10] = gene X06827_at porphobilinogen deaminase
[11] = gene Z28351exon_s_at 25-hydroxyvitamin D3 24-hydroxylase

Question: For `C=C(C)[C@H]1CN[C@H](C(=O)O)[C@H]1CC(=O)O` [kainate, kainic acid], which Average fold induction [1] is on record?
Answer: Its Average fold induction is 4.15 fold.

Question: And the Minimum fold induction [1]?
Answer: The Minimum fold induction was 2.5 fold.

Question: And the Average fold induction (gene AF045464_s_at)?
Answer: The Average fold induction was 6.5 fold.

Question: And the Minimum fold induction (gene AF045464_s_at)?
Answer: The Minimum fold induction was 2.5 fold.

Question: What about the Average fold induction (gene AF079162_at patched (ptc)) of the same compound?
Answer: The Average fold induction was 5.4 fold.

Question: What about the Minimum fold induction (gene AF079162_at patched (ptc)) of the same compound?
Answer: Its Minimum fold induction is 3.2 fold.

Question: What about the Average fold induction [2] of the same compound?
Answer: The Average fold induction was 3.4 fold.

Question: What about the Minimum fold induction [2] of the same compound?
Answer: The Minimum fold induction was 2.4 fold.

Question: What about the Average fold induction [3] of the same compound?
Answer: The Average fold induction was 4.6 fold.

Question: And the Minimum fold induction [3]?
Answer: Its Minimum fold induction is 2.4 fold.

Question: And the Average fold induction [4]?
Answer: The Average fold induction was 11.4 fold.

Question: What about the Minimum fold induction [4] of the same compound?
Answer: The Minimum fold induction was 3.1 fold.

Question: What about the Average fold induction (gene D89863_g_at (M-ras) M-Ras) of the same compound?
Answer: Its Average fold induction is 5.6 fold.

Question: And the Minimum fold induction (gene D89863_g_at (M-ras) M-Ras)?
Answer: Its Minimum fold induction is 2.3 fold.

Question: What about the Average fold induction [5] of the same compound?
Answer: Its Average fold induction is 4.32 fold.

Question: And the Minimum fold induction [5]?
Answer: The Minimum fold induction was 3.4 fold.

Question: And the Average fold induction [6]?
Answer: Its Average fold induction is 3.9 fold.

Question: What about the Minimum fold induction [6] of the same compound?
Answer: Its Minimum fold induction is 2.7 fold.

Question: What about the Average fold induction (gene L81138exon Rps2r gene) of the same compound?
Answer: Its Average fold induction is 5.5 fold.

Question: What about the Minimum fold induction (gene L81138exon Rps2r gene) of the same compound?
Answer: The Minimum fold induction was 2.3 fold.

Question: What about the Average fold induction (gene M91234_f_at VL30 element) of the same compound?
Answer: Its Average fold induction is 4.4 fold.

Question: What about the Minimum fold induction (gene M91234_f_at VL30 element) of the same compound?
Answer: Its Minimum fold induction is 2.5 fold.

Question: And the Average fold induction (gene M91235_f_at VL30 element)?
Answer: Its Average fold induction is 3.9 fold.

Question: What about the Minimum fold induction (gene M91235_f_at VL30 element) of the same compound?
Answer: Its Minimum fold induction is 3 fold.

Question: And the Average fold induction [7]?
Answer: The Average fold induction was 10 fold.

Question: What about the Minimum fold induction [7] of the same compound?
Answer: The Minimum fold induction was 2.9 fold.

Question: And the Average fold induction (gene Rc_AA799614_at)?
Answer: Its Average fold induction is 4.7 fold.

Question: What about the Minimum fold induction (gene Rc_AA799614_at) of the same compound?
Answer: The Minimum fold induction was 2.5 fold.

Question: And the Average fold induction (gene Rc_AA852046_s_at)?
Answer: The Average fold induction was 4.3 fold.

Question: What about the Minimum fold induction (gene Rc_AA852046_s_at) of the same compound?
Answer: The Minimum fold induction was 2.5 fold.

Question: What about the Average fold induction (gene Rc_AA891828_at) of the same compound?
Answer: Its Average fold induction is 4 fold.

Question: What about the Minimum fold induction (gene Rc_AA891828_at) of the same compound?
Answer: The Minimum fold induction was 2.6 fold.

Question: What about the Average fold induction (gene Rc_AA894273_at) of the same compound?
Answer: Its Average fold induction is 5.2 fold.

Question: What about the Minimum fold induction (gene Rc_AA894273_at) of the same compound?
Answer: The Minimum fold induction was 2.8 fold.

Question: What about the Average fold induction (gene Rc_AA925529_at) of the same compound?
Answer: The Average fold induction was 4 fold.

Question: And the Minimum fold induction (gene Rc_AA925529_at)?
Answer: The Minimum fold induction was 3 fold.

Question: What about the Average fold induction (gene Rc_AA955182_g_at) of the same compound?
Answer: The Average fold induction was 9 fold.

Question: And the Minimum fold induction (gene Rc_AA955182_g_at)?
Answer: Its Minimum fold induction is 2.3 fold.

Question: What about the Average fold induction (gene Rc_AI104924_f_at) of the same compound?
Answer: Its Average fold induction is 4.1 fold.

Question: What about the Minimum fold induction (gene Rc_AI104924_f_at) of the same compound?
Answer: Its Minimum fold induction is 3.3 fold.

Question: And the Average fold induction [8]?
Answer: The Average fold induction was 2.8 fold.

Question: And the Minimum fold induction [8]?
Answer: The Minimum fold induction was 2.6 fold.

Question: What about the Average fold induction [9] of the same compound?
Answer: The Average fold induction was 5.5 fold.

Question: What about the Minimum fold induction [9] of the same compound?
Answer: Its Minimum fold induction is 4.3 fold.

Question: What about the Average fold induction (gene U73030_at) of the same compound?
Answer: The Average fold induction was 4.1 fold.

Question: And the Minimum fold induction (gene U73030_at)?
Answer: Its Minimum fold induction is 2.4 fold.

Question: And the Average fold induction [10]?
Answer: The Average fold induction was 3.6 fold.

Question: What about the Minimum fold induction [10] of the same compound?
Answer: Its Minimum fold induction is 3 fold.

Question: And the Average fold induction (gene X60675_at interleukin 10)?
Answer: The Average fold induction was 3.6 fold.

Question: And the Minimum fold induction (gene X60675_at interleukin 10)?
Answer: The Minimum fold induction was 2.3 fold.

Question: And the Average fold induction (gene X76697_at B7 antigen)?
Answer: The Average fold induction was 5.7 fold.

Question: What about the Minimum fold induction (gene X76697_at B7 antigen) of the same compound?
Answer: Its Minimum fold induction is 2.5 fold.

Question: What about the Average fold induction [11] of the same compound?
Answer: Its Average fold induction is 3.5 fold.

Question: And the Minimum fold induction [11]?
Answer: Its Minimum fold induction is 2.3 fold.

Question: And the Average fold induction (gene rc_AI102562_at)?
Answer: Its Average fold induction is 3 fold.

Question: And the Minimum fold induction (gene rc_AI102562_at)?
Answer: Its Minimum fold induction is 2.4 fold.

Question: And the “Number of genes induced following kainate” value (rat blood, arrays that contained over 8000 genes)?
Answer: The value was “Over 100 genes”.
